Experimental data taken from patent US20140378502A1, “Par1 Inhibitors for Use in the Treatment or Prevention of Paramyxoviridae Infections” (Université Laval, priority 2011, published 2014).
Where no end group is shown, it is not given here.

Legend:
hMPV [1] = conditions: background statement; cited from earlier work
hMPV strain C-85473 [2] = experiment: hMPV-infected BALB/c mice, five-day pre-exposure prophylactic treatment regimen (experiment 2); assay type: in vivo; conditions: 500 μM, 5-day treatment; for pulmonary inflammation (histopathology): infected treated vs infected untreated mice; for pulmonary viral titers: vs other infected groups; for weight loss (and symptoms): hMPV-infected mice, vs infected untreated mice
Method: (§1) hMPV viral titers were determined by 10-fold serial dilutions of virus in 24-well plates containing LLC-MK2 cells. Before infection, cells were washed twice with phosphate-buffered saline (PBS) to remove residual serum proteins that could inhibit trypsin activity. Infected plates were incubated at 37° C. with 5% CO2 and replenished with 1 μl of fresh trypsin (0.0002%) every other day. hRSV viral titers were determined by 10-fold serial dilutions of virus in 24-well plates containing Hep2 cells. Before infection, cells were washed twice with phosphate-buffered saline (PBS). Infected plates were incubated at 37° C. with 5% CO2. On day 4 post infection, plates were fixed with 80% acetone at −20° C. for 30 min, washed with PBS and air dried. The presence of hRSV was detected by an immuno-staining assay using a monoclonal goat Anti-Respiratory Syncytial Virus primary antibody and a donkey anti-Goat IgG Secondary Antibody, HRP conjugate (both from Cederlane). Virus titers were reported as 50% tissue culture infectious doses (TCID50) per ml, per mouse or per gram of lung. The lower limit of detection of the assay is 10^2 TCID50 per gram. TCID50 were calculated by the Reed and Muench method.
(§2) In the second protocol, groups of 18 4-6-week-old BALB/c mice (Charles River Laboratories) were infected intranasally with 6-8×10^5 TCID50 hMPV strain C-85473 in 25 μl of OptiMEM™ supplemented with the PAR-1 agonist, PAR-1 antagonist or control peptide at a final concentration of 500 μM. As infected controls, groups of 18 4-6-week-old BALB/c mice (Charles River Laboratories) were infected intranasally with 6-8×10^5 TCID50 hMPV strain C-85473 in 25 μl of OptiMEM™ supplemented with H2O or DMSO. As uninfected control, groups 18 mice were sham infected with the concentrated supernatant of non-infected LLC-MK2 cells supplemented with the PAR-1 agonist, PAR-1 antagonist or control peptide at a final concentration of 500 μM or DMSO. On day 1 through 4 post infection, animals were treated with the PAR-1 agonist, PAR-1 antagonist or control peptide at a final concentration of 50 μM or 500 μM, or H2O or DMSO for control groups, resulting in a 5-day treatment in total. Animals were housed in groups of five and three in micro-isolator cages. The animals were evaluated on a daily basis for mortality, weight loss, and the presence of symptoms. On day 5 post-infection, lungs were removed from six mice per group for the evaluation of viral titres by cell culture and cytokine expression by Iuminex™. Lungs of another six mice per group were removed for histopathological analysis.
(§3) On day 5 post infection, six animals per group were sacrificed, the lungs were removed and snap frozen in liquid nitrogen. Lungs were weighed, homogenized in 1 ml of PBS, centrifuged (2000 rpm, 10 min) and the supernatant was used to infect LLC-MK2 monolayers (in case of hMPV-infected mice) or Hep2 monolayer (in case of hRSV-infected mice) for virus titration as reported in the section “Viral titers”.
(§4) 250 μL of lung homogenates (see section “Pulmonary viral titers”) were added to 250 μl 50 mM KPO4, pH 6.0 buffer containing 0.2% CHAPS {3-[(3-cholamidopropyl)-dimethylammonio]1-1-propanesulfonate} (Sigma) and 0.2% of a protease inhibitor cocktail (Sigma) and stored at −20° C. until the day of analysis. Samples were centrifuged at 13,800×g for 10 min at 4° C., and 50 μl of the supernatant was used for cytokine quantification. Levels of interleukin-4, IL-6, IL-12(p40), IL-12(p70), IFN-γ, KC, MCP-1, MIP-1α, RANTES were determined by the use of a 9-plex mouse bead kits (BioRad™/Millipore™) according to the manufacturer's instructions. Experiments were performed in a 96-well filter plate and results were analysed with the Luminex™ system (Qiagen™).
On day 5 post infection, 6 animals per group were sacrificed, and the lungs were collected at specified time points and fixed with 4% buffered formalin. […]

hRSV strain 15 595 = experiment: hRSV Balb/C mouse model, five-day treatment (experiment 4); assay type: in vivo; conditions: day 5 post hRSV infection, 500 μM, 5-day treatment, vs untreated and PAR-1 agonist treated mice
Method: The clinical hRSV A strain 15 959 that was passed nine times on Hep2 cells, was grown on Hep2 cells in MEM™ (Life Technologies) supplemented with 2% FBS (Wisent). Hep2 cells were infected with 10 TCID50/Hep2 cell of hRSV 15 959 and plated out into one flask (150 cm^2) until 60% cytopathic effects were observed. Infected monolayers and supernatants were recovered with a cell scraper and sonicated. The pooled preparation was centrifuged (1200 r.p.m., 10 min) to remove cellular debris. Supernatant was aliquoted and stored at −80° C. The same protocol was followed for a flask of uninfected cells for control mice.
hMPV viral titers were determined by 10-fold serial dilutions of virus in 24-well plates containing LLC-MK2 cells. […] Infected plates were incubated at 37° C. with 5% CO2 and replenished with 1 μl of fresh trypsin (0.0002%) every other day. hRSV viral titers were determined by 10-fold serial dilutions of virus in 24-well plates containing Hep2 cells. […] The presence of hRSV was detected by an immuno-staining assay using a monoclonal goat Anti-Respiratory Syncytial Virus primary antibody and a donkey anti-Goat IgG Secondary Antibody, HRP conjugate (both from Cederlane). […] TCID50 were calculated by the Reed and Muench method. […]
Differences in weight loss between groups was analysed by repeated measures two-way ANOVA. […]

[3] = Uninfected (sham infected) mice treated for 5 days, check for toxic and non specific effects; assay type: in vivo, BALB/c mice; conditions: 500 μM
Method: as §2, with “Lungs of another six mice per group were removed for histopathological analysis.” left out
as §4

hMPV strain C-85473 [4] = experiment: hMPV-infected BALB/c mice, five-day treatment started simultaneously or 24 h post infection (experiment 3); assay type: in vivo; conditions: 500 μM
Method: as §1
In a third protocol, Two groups of 12 4-6-week-old BALB/c mice (Charles River Laboratories) were infected intranasally with 6×105 TCID50 hMPV strain C-85473 in 25 μl of OptiMEM™, supplemented with the PAR-1 agonist or PAR-1 antagonist at a final concentration of 500 μM and treated on days 1 through 4 post infection with the PAR-1 agonist or PAR-1 antagonist (500 μM). Two more groups of 4-6-week-old BALB/c mice (Charles River Laboratories) were infected intranasally with 6×105 TCID50 hMPV strain C-85473 in 25 μl of OptiMEM™. These groups were treated from day 1 though 5 post infection (treatment delayed 24 h post-infection) with the PAR-1 agonist or PAR-1 antagonist (500 μM). As infected controls, groups of 12 4-6-week-old BALB/c mice (Charles River Laboratories) were infected intranasally with 4×105 TCID50 hMPV strain C-85473 in 25 μl of OptiMEM supplemented with DMSO. All animals were housed in groups of four in micro-isolator cages. The animals were evaluated on a daily basis for mortality, weight loss, and the presence of symptoms. On day 5 post-infection, lungs were removed from six mice per group for the evaluation of viral titres by cell culture
as §3
(§5) Differences in weight loss between groups was analysed by repeated measures two-way ANOVA. Viral titers, cytokine levels and mean histopathology scores were analysed using student t-test.

hMPV strain C-85473 [5] = experiment: hMPV-infected BALB/c mice, three-day prophylactic treatment regimen (experiment 1); assay type: in vivo; conditions: 3-day treatment; for pulmonary viral titers: day 5 post hMPV infection, vs diluted DMSO or H2O treated mice; for pulmonary viral titers / cytokine expression in the lungs: 50 or 500 μM; for cytokine expression in the lungs: day 5 post infection, Luminex; for weight loss: hMPV-infected mice, 50 or 500 μM intranasal, vs infected untreated mice (H2O or DMSO), followed 14 days; for mice that reached the humane endpoint: none in the untreated group
Method: as §1
In the first protocol, groups of 12 4-6-week-old female BALB/c mice (Charles River Laboratories) were infected intranasally with 4-7×10^5 TCID50 hMPV strain C-85473 in 25 μl of OptiMEM™ supplemented with the PAR-1 or PAR-1 antagonist at a final concentration of 50 μM or 500 μM. As infected controls, groups of 12 4-6-week-old BALB/c mice (Charles River Laboratories) were infected intranasally with 4-7×10^5 TCID50 hMPV strain C-85473 in 25 μl of OptiMEM™ supplemented with H2O or DMSO. As an uninfected control, 12 mice were sham infected with the concentrated supernatant of non-infected LLC-MK2 cells supplemented with DMSO. On day 1 and 2 post infection, animals were treated with the PAR-1 agonist or PAR-1 antagonist at a final concentration of 50 μM or 500 μM, or H2O or DMSO for control groups, resulting in a 3-day treatment in total. All animals were housed in groups of four in micro-isolator cages. The animals were evaluated on a daily basis for mortality, weight loss, and the presence of symptoms. On day 5 post-infection, lungs were removed from six mice per group for the evaluation of viral titres by cell culture and cytokine expression by Luminex™.
as §3, §4, §5

hMPV [6] = conditions: background statement; cited from earlier work; remark: listed apart in the source
hMPV [7] = conditions: background statement; cited from earlier work; remark: listed apart in the source
[8] = 5-day prophylactic treatment started simultaneously with infection, vs infected/untreated group (FIG. 12)
[9] = 5-day treatment started 24 h post infection, vs infected/untreated mice (FIG. 13)

## C[C@]12C[C@H](O)[C@H]3[C@@H](CCC4=CC(=O)CC[C@@]43C)[C@@H]1CC[C@@H]2C(=O)CO [corticosterone]
hMPV [1]
  effect in hMPV-infected mice: minimal benefit

## CC(C)c1ccc(Cn2ccc3c4c(N)nc(NC5CC5)nc4ccc32)cc1 [PAR-1 antagonist, N3-cyclopropyl-7-{[4(I-methylethyl)phenyl]methyl)-7H-pyrrolo[3,2-f]quinazoline-I,3-diamine]
hMPV strain C-85473 [2]; day 5 post hMPV infection
  pulmonary inflammation (histopathology): no pulmonary inflammation was observed
hMPV strain C-85473 [2]; day 5 post infection, Luminex
  pulmonary inflammatory cytokine/chemokine levels compared to all other groups of infected mice: significant reduction in all of the evaluated inflammatory cytokine/chemokine levels
hMPV strain C-85473 [2]; day 5 post infection
  pulmonary viral titers: reduced pulmonary viral titers
hMPV strain C-85473 [2]
  weight loss (and symptoms): abolished all weight loss and symptoms
hRSV strain 15 595
  lung viral titers: significantly reduced viral titers
[3]
  weight loss or symptoms in uninfected mice: In none of the uninfected groups significant weight loss or symptoms were observed
hMPV strain C-85473 [4]; [8]
  weight loss: significant reduced weight loss
hMPV strain C-85473 [4]; [9]
  weight loss: lost less weight than infected/untreated mice and weight loss started at a later time point
hMPV strain C-85473 [4]; 5-day treatment started 24 h post infection, vs infected/untreated mice (FIG. 13), listed as PAR1 antagonists
  weight loss: started losing weight later and lost less weight than untreated infected mice, although the difference was not found to be statistically significant
hMPV strain C-85473 [4]; day 5 post infection, treatment simultaneous or started 24 h post infection, vs infected/untreated
  pulmonary viral titers: reduction in pulmonary viral titers
hMPV strain C-85473 [5]
  pulmonary viral titers: significant (though not dose-dependent) reduction
  cytokine expression in the lungs: no significant difference in cytokine expression
  weight loss: dose dependent reduction in weight loss

## TFLLR-NH2 [PAR-1 agonist]
hMPV strain C-85473 [2]; day 5 post hMPV infection
  lung histopathological inflammation criteria compared to uninfected, untreated mice: increases in all but one (peribronchial) inflammation criteria
  pulmonary inflammation (histopathology): No significant difference
hMPV strain C-85473 [2]; day 5 post infection, Luminex
  pulmonary cytokine/chemokine levels compared to infected mice treated with H2O: increased levels of IL-4, IL-12(p40) and MCP-1
  pulmonary cytokine/chemokine levels compared to mice treated with the control peptide: increased levels of IL-4, KC, MCP-1 and MIP-1α
hMPV strain C-85473 [2]; day 5 post infection
  pulmonary viral titers: No significant difference
hMPV strain C-85473 [2]
  weight loss (and symptoms): no significant difference in weight loss
[3]
  weight loss or symptoms in uninfected mice: In none of the uninfected groups significant weight loss or symptoms were observed
hMPV strain C-85473 [4]; [8]
  weight loss: regained weight less rapidly than the control
hMPV strain C-85473 [4]; [9]
  weight loss: regained their weight more slowly than infected/untreated mice
hMPV strain C-85473 [4]; 5-day treatment started 24 h post infection, vs infected/untreated mice (FIG. 13), listed as PAR1 agonist
  weight loss: more weight loss than infected/untreated mice
hMPV strain C-85473 [4]; day 5 post infection
  pulmonary viral titers, treatment started simultaneously vs 24 h post infection: No significant difference
hMPV strain C-85473 [5]; 50 μM
  mice that reached the humane endpoint: One out of 6
hMPV strain C-85473 [5]; 500 μM
  difference in weight loss vs infected untreated mice: significant on days 5 through 7
  mice that reached the humane endpoint: 3 out of 6
hMPV strain C-85473 [5]
  pulmonary viral titers: No significant difference
  cytokine expression in the lungs: dose-dependent increases in IL-6, IL-12(p40) and MCP-1
  weight loss: dose-dependent increase in weight loss

## NC(=O)c1ncn([C@@H]2O[C@H](CO)[C@@H](O)[C@H]2O)n1 [Ribavirin]
hMPV [1]
  effect in hMPV-infected mice: effective
hMPV [6]
  in vitro activity against hMPV: good in vitro activity
hMPV [7]
  effect in a lung transplant recipient with hMPV pneumonia: effective

## FTLLR-NH2 [control peptide, FTLLR-NH2]
[3]
  weight loss or symptoms in uninfected mice: In none of the uninfected groups significant weight loss or symptoms were observed
